Experimental data published in patent US9670221B2, “Furopyridines as bromodomain inhibitors” (GlaxoSmithKline Intellectual Property (No.2) Limited, priority 2013, dated 2017).
Structures can show the parent of a compound that is named as a salt.

Target: T1, BRD4 BD1 (Homo sapiens, UniProt O60885, Y390A)
T1 construct: BRD4 (1-477) (Y97A) and (Y390A); made in house; host or cells: E. coli (pET15b vector)
Experiment: TR-FRET binding assay, BRD4 BD1 (mutant protein)
Settings: BRD4 (1-477) mutant, 10 nM protein, read-out: pIC50 in the BRD4 BD1 assay (converted)
Protocol: Time Resolved Fluorescence Resonance Energy Transfer (TR-FRET) Assay
Binding was assessed using a time resolved fluorescent resonance energy transfer binding assay. This utilises a 6 His purification tag at the N-terminal of the proteins as an epitope for an anti-6 His antibody labeled with Europium chelate (PerkinElmer AD0111) allowing binding of the Europium to the proteins which acts as the donor fluorophore. A small molecule, high affinity binder of the bromodomains BRD2, BRD3, BRD4 and BRDT has been labeled with Alexa Fluor647 (Reference Compound X) and this acts as the acceptor in the FRET pair.
Assay Principle: In the absence of a competing compound, excitation of the Europium causes the donor to emit at λ618 nm which excites the Alexa labelled bromodomain binding compound leading to an increased energy transfer that is measurable at λ647 […]. In the presence of a sufficient concentration of a compound that can bind these proteins, the interaction is disrupted leading to a quantifiable drop in fluorescent resonance energy transfer.
The binding of the compounds of formula (I) to Bromodomains BRD2, BRD3, BRD4 and BRDT was assessed using mutated proteins to detect differential binding to either Binding Domain 1 (BD1) or Binding Domain 2 (BD2) on the bromodomain. These single residue mutations in the acetyl lysine binding pocket greatly lower the affinity of the fluoroligand (Reference Compound X) for the mutated domain (>1000 fold selective for the non-mutated domain). Therefore in the final assay conditions, binding of the fluoroligand to the mutated domain cannot be detected and subsequently the assay is suitable to determine the binding of compounds to the single non-mutated bromodomain.
Protein production: Recombinant Human Bromodomains [(BRD2 (1-473) (Y113A) and (Y386A), BRD3 (1-435) (Y73A) and (Y348A) BRD4 (1-477) (Y97A) and (Y390A) and BRDT (1-397) (Y66A) and (Y309A)] were expressed in E. coli cells (in pET15b vector for BRD2/3/4 and in pET28a vector for BRDT) with a 6-His tag at the N-terminal. The His-tagged Bromodomain pellet was resuspended in 50 mM HEPES (pH7.5), 300 mM NaCl, 10 mM imidazole & 1 μl/mL protease inhibitor cocktail and extracted from the E. coli cells using sonication and purified using a nickel sepharose high performance column, the proteins were washed and then eluted with a linear gradient of 0-500 mM imidazole with buffer 50 mM HEPES (pH7.5), 150 mM NaCl, 500 mM imidazole, over 20 column volumes. Final purification was completed by Superdex 200 prep grade size exclusion column. Purified protein was stored at −80° C. in 20 mM HEPES pH 7.5 and 100 mM NaCl. Protein identity was confirmed by peptide mass fingerprinting and predicted molecular weight confirmed by mass spectrometry.
Protocol for Bromodomain BRD2, 3, 4 and T, BD1^+BD2 mutant assays: All assay components were dissolved in buffer composition of 50 mM HEPES pH7.4, 50 mM NaCl, 5% Glycerol, 1 mM DTT and 1 mM CHAPS. The final concentration of bromodomain proteins were 10 nM and the Alexa Fluor647 ligand was at Kd. These components were premixed and 5 μl of this reaction mixture was added to all wells containing 50 nl of various concentrations of test compound or DMSO vehicle (0.5% DMSO final) in Greiner 384 well black low volume microtitre plates and incubated in dark for 30 minutes at room temperature. 5 μl of detection mixture containing 1.5 nM final concentration anti-6His Europium chelate was added to all wells and a further dark incubation of at least 30 minutes was performed. Plates were then read on the Envision platereader, (λex=317 nm, donor λem=615 nm; acceptor λem=665 nm; Dichroic LANCE dual). Time resolved fluorescent intensity measurements were made at both emission wavelengths and the ratio of acceptor/donor was calculated and used for data analysis. All data was normalized to the mean of 16 high (inhibitor control—Example 11 of WO 2011/054846A1) and 16 low (DMSO) control wells on each plate. […]

SMILES | IC50 [nM]
CC(=O)Nc1cc(-c2cn(C)c(=O)c3cc(CN4CCN(S(C)(=O)=O)CC4)oc23)ccn1 [Example 37, N-(4-(5-methyl-2-((4-(methylsulfonyl)piperazin-1-yl)methyl)-4-oxo-4,5-dihydrofuro[3,2-c]pyridin-7-yl)pyridin-2-yl)acetamide] | ≤ 100
CC(=O)Nc1cncc(-c2cn(C)c(=O)c3cc(CN4CCN(S(C)(=O)=O)C[C@H]4C)oc23)c1 [Example 38, (R)—N-(5-(5-methyl-2-((2-methyl-4-(methylsulfonyl)piperazin-1-yl)methyl)-4-oxo-4,5-dihydrofuro[3,2-c]pyridin-7-yl)pyridin-3-yl)acetamide] | ≤ 100
Cn1cc(-c2ccncc2NCC2CC2)c2oc(CN3CCN(S(C)(=O)=O)CC3)cc2c1=O [Example 39, 7-(3-((cyclopropylmethyl)amino)pyridin-4-yl)-5-methyl-2-((4-(methylsulfonyl)piperazin-1-yl)methyl)furo[3,2-c]pyridin-4(5H)-one] | ≤ 100
C[C@@H]1CN(S(C)(=O)=O)CCN1Cc1cc2c(=O)n(C)cc(-c3ccncc3NCC3CC3)c2o1 [Example 40, (R)-7-(3-((cyclopropylmethyl)amino)pyridin-4-yl)-5-methyl-2-((2-methyl-4-(methylsulfonyl)piperazin-1-yl)methyl)furo[3,2-c]pyridin-4(5H)-one] | ≤ 100
C[C@@H]1CN(S(C)(=O)=O)CCN1Cc1cc2c(=O)n(C)cc(-c3ccncc3OCC3CCO3)c2o1 (stereo partly drawn) [Example 41, 5-methyl-2-(((R)-2-methyl-4-(methylsulfonyl)piperazin-1-yl)methyl)-7-(3-(oxetan-2-ylmethoxy)pyridin-4-yl)furo[3,2-c]pyridin-4(5H)-one] | ≤ 100
C[C@@H]1CN(S(C)(=O)=O)CCN1Cc1cc2c(=O)n(C)cc(-c3ccncc3OC[C@H]3CCO3)c2o1 [Example 42, 5-methyl-2-(((R)-2-methyl-4-(methylsulfonyl)piperazin-1-yl)methyl)-7-(3-((R)-oxetan-2-ylmethoxy)pyridin-4-yl)furo[3,2-c]pyridin-4(5H)-one] | ≤ 100
C[C@@H]1CN(S(C)(=O)=O)CCN1Cc1cc2c(=O)n(C)cc(-c3ccncc3OC[C@@H]3CCO3)c2o1 [Example 43, 5-methyl-2-(((R)-2-methyl-4-(methylsulfonyl)piperazin-1-yl)methyl)-7-(3-((S)-oxetan-2-ylmethoxy)pyridin-4-yl)furo[3,2-c]pyridin-4(5H)-one] | ≤ 100
C[C@@H]1CN(S(C)(=O)=O)CCN1Cc1cc2c(=O)n(C)cc(-c3ncccc3OCC3CC3)c2o1 [Example 44, (R)-7-(3-(cyclopropylmethoxy)pyridin-2-yl)-5-methyl-2-((2-methyl-4-(methylsulfonyl)piperazin-1-yl)methyl)furo[3,2-c]pyridin-4(5H)-one] | ≤ 100
C[C@@H]1CN(S(C)(=O)=O)CCN1Cc1cc2c(=O)n(C)cc(-c3ccncc3OCC3COC3)c2o1 [Example 46, (R)-5-methyl-2-((2-methyl-4-(methylsulfonyl)piperazin-1-yl)methyl)-7-(3-(oxetan-3-ylmethoxy)pyridin-4-yl)furo[3,2-c]pyridin-4(5H)-one] | ≤ 100
CC(=O)N1CCN(Cc2cc3c(=O)n(C)cc(-c4ccnc(OCC5CCOCC5)c4)c3o2)C(C)C1 (stereo not shown) [Example 47, 2-((4-acetyl-2-methylpiperazin-1-yl)methyl)-5-methyl-7-(2-((tetrahydro-2H-pyran-4-yl)methoxy)pyridin-4-yl)furo[3,2-c]pyridin-4(5H)-one hydrochloride] | ≤ 100
CC(=O)Nc1cccc(-c2cn(C)c(=O)c3cc(CN4CCN(S(C)(=O)=O)CC4)oc23)c1 [Example 48, N-(3-(5-methyl-2-((4-(methylsulfonyl)piperazin-1-yl)methyl)-4-oxo-4,5-dihydrofuro[3,2-c]pyridin-7-yl)phenyl)acetamide] | ≤ 100

Other lines, results leading:

IC50 [nM] | SMILES
≤ 100 | C[C@@H]1CN(S(C)(=O)=O)CCN1Cc1cc2c(=O)n(C)cc(-c3cccnc3NCC3CC3)c2o1 [Example 49, (R)-7-(2-((cyclopropylmethyl)amino)pyridin-3-yl)-5-methyl-2-((2-methyl-4-(methylsulfonyl)piperazin-1-yl)methyl)furo[3,2-c]pyridin-4(5H)-one]
≤ 100 | C[C@@H]1CN(S(C)(=O)=O)CCN1Cc1cc2c(=O)n(C)cc(-c3cccc(N)c3)c2o1 [Example 50, (R)-7-(3-aminophenyl)-5-methyl-2-((2-methyl-4-(methylsulfonyl)piperazin-1-yl)methyl)furo[3,2-c]pyridin-4(5H)-one]
≤ 100 | CCOc1cnccc1-c1cn(C)c(=O)c2cc(CN3CCN(S(C)(=O)=O)C[C@H]3C)oc12 [Example 52, (R)-7-(3-ethoxypyridin-4-yl)-5-methyl-2-((2-methyl-4-(methylsulfonyl)piperazin-1-yl)methyl)furo[3,2-c]pyridin-4(5H)-one]
≤ 100 | CC(=O)Nc1cccc(-c2cn(C)c(=O)c3cc(CN4CCN(S(C)(=O)=O)C[C@H]4C)oc23)n1 [Example 54, (R)-N-(6-(5-methyl-2-((2-methyl-4-(methylsulfonyl)piperazin-1-yl)methyl)-4-oxo-4,5-dihydrofuro[3,2-c]pyridin-7-yl)pyridin-2-yl)acetamide]
≤ 100 | Cn1cc(-c2ccncc2OCC2CC2)c2oc(CN3CCCNCC3)cc2c1=O [Example 55, 2-((1,4-diazepan-1-yl)methyl)-7-(3-(cyclopropylmethoxy)pyridin-4-yl)-5-methylfuro[3,2-c]pyridin-4(5H)-one hydrochloride]
≤ 100 | CN1CCCN(Cc2cc3c(=O)n(C)cc(-c4ccncc4OCC4CC4)c3o2)CC1 [Example 56, 7-(3-(cyclopropylmethoxy)pyridin-4-yl)-5-methyl-2-((4-methyl-1,4-diazepan-1-yl)methyl)furo[3,2-c]pyridin-4(5H)-one hydrochloride]
≤ 100 | CN1CCCN(Cc2cc3c(=O)n(C)cc(-c4cccc(NCc5ccccn5)c4)c3o2)CC1 [Example 57, 5-methyl-2-((4-methyl-1,4-diazepan-1-yl)methyl)-7-(3-((pyridin-2-ylmethyl)amino)phenyl)furo[3,2-c]pyridin-4(5H)-one hydrochloride]
≤ 100 | CC(C)Oc1cnccc1-c1cn(C)c(=O)c2cc(CN3CCN(S(C)(=O)=O)C[C@H]3C)oc12 [Example 58, (R)-7-(3-isopropoxypyridin-4-yl)-5-methyl-2-((2-methyl-4-(methylsulfonyl)piperazin-1-yl)methyl)furo[3,2-c]pyridin-4(5H)-one]
≤ 100 | C[C@@H]1CN(S(C)(=O)=O)CCN1Cc1cc2c(=O)n(C)cc(-c3ccnc(N)c3)c2o1 [Example 59, (R)-7-(2-aminopyridin-4-yl)-5-methyl-2-((2-methyl-4-(methylsulfonyl)piperazin-1-yl)methyl)furo[3,2-c]pyridin-4(5H)-one]
≤ 100 | C[C@@H]1CN(S(C)(=O)=O)CCN1Cc1cc2c(=O)n(C)cc(-c3ccncc3O)c2o1 [Example 60, (R)-7-(3-hydroxypyridin-4-yl)-5-methyl-2-((2-methyl-4-(methylsulfonyl)piperazin-1-yl)methyl)furo[3,2-c]pyridin-4(5H)-one]
≤ 10 | C[C@@H]1CN(S(C)(=O)=O)CCN1Cc1cc2c(=O)n(C)cc(-c3ccncc3OCC3CC3(F)F)c2o1 (stereo partly drawn) [Example 61, 7-(3-((2,2-difluorocyclopropyl)methoxy)pyridin-4-yl)-5-methyl-2-(((R)-2-methyl-4-(methylsulfonyl)piperazin-1-yl)methyl)furo[3,2-c]pyridin-4(5H)-one]
